From patent US20050239808A1, “Active substances for the treatment, diagnosis and prophylaxis of diseases in which abnormal protein structures occur” (priority 2002, published 2005) come the findings set out here.

The target in data set [1] is T1, Aβ(1-42) (Homo sapiens, UniProt P05067).
T1 construct: Aβ(1-42) was used as the model molecule in the aggregation experiments
Kind of data set: Aβ(1-42) aggregation assay by Fluorescence Correlation Spectroscopy (FCS). The format is biochemical. The conditions noted are these: 5.5-11 μM Aβ(1-42) + 22 nM oregon green-labelled Aβ(1-42), 10 nM of aminopyrazole (referring to the initial solution), 5-10% DMSO, 10 mM sodium phosphate buffer pH 7.2, room temperature, 12-72 hours.

Data set [2] deals with T1, Aβ(1-42). The format is biochemical. The conditions noted are these: FIG. 10; 32.8 μM and 16.4 μM Aβ(1-42), 20 mM AmpOx, 6 h at room temperature, 6% DMSO, 100,000 g centrifugation.
Description: Aβ(1-42) solutions were incubated under various conditions and their aggregation was analysed by a 100,000 g spin in an ultracentrifuge.
The Aβ(1-42) dissolved in 100% DMSO was diluted to a concentration of 11 μM in 10 mM of sodium phosphate buffer pH 7.2. All samples contained 22 nM of oregon green labelled Aβ(1-42) and were incubated for 48 hours at room temperature in 10% DMSO.
Aβ(1-42) was dissolved in 100% DMSO and diluted to a concentration of 32.8 μM and 16.4 μM in 10 mM of sodium phosphate buffer pH 7.2. The protein was incubated at room temperature for 6 h in 6% DMSO with and without 20 mM AmpOx.
Data set [3] in a line: Solubility of aminopyrazoles in DMSO and after dilution in sodium phosphate buffer.
Description: These aminopyrazoles were dissolved in 100% DMSO. […] In order to eliminate particles, these dissolved solutions of aminopyrazoles were resolved in 10 mM of sodium phosphate buffer pH 7.2 to a final DMSO concentration of 5%. They were then filtered with Microcon YM 10 tubes.

T1 sequence (P05067 672-713 limits assumed): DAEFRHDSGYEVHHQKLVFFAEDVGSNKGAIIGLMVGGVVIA

In the case of `COC(=O)c1cc(NC(=O)c2cc(NC(=O)c3cc([N+](=O)[O-])[nH]n3)[nH]n2)[nH]n1` [Trimer], the “inhibition of Aβ(1-42) aggregation” value in data set [1] was “able to disturb or inhibit the aggregation of Aβ(1-42)”.
Take `Cc1cc(NC(=O)C(=O)Nc2cc(C)[nH]n2)n[nH]1` [AmpOx, N,N′-Bis-(−5-methyl-1H-pyrazole-3-yl)-oxalic acid diamide]: the “inhibition of Aβ(1-42) aggregation” value in data set [1] was “able to disturb or inhibit the aggregation of Aβ(1-42)”. Also, the “distribution of Aβ(1-42) between supernatant (S) and pellet (P), compared with the Trimer result” value in data set [2] was “almost identical results”. For the same molecule, the “solubility in 100% DMSO” value in data set [3] is “not completely soluble”.
